Experimental data taken from paper PMC5973626, “A secreted Heat shock protein 90 of Trichomonas vaginalis” (PLoS Neglected Tropical Diseases, 2018).

What was measured:
Type in all cases: binding
[1] = molecular target: T1, TV560 (cytosolic Hsp90, TVAG_153560) (Trichomonas vaginalis, UniProt A2EPR1); test: intrinsic tryptophan fluorescence quenching; also ATPase inhibition (IC50 […])
T1 construct: full-length, 6x-His tag fusion expressed in E. coli (721 amino acids)

[2] = molecular target: T2, TV910 (Grp94 ortholog, TVAG_378910) (Trichomonas vaginalis, UniProt A2DB82); test: as above
T2 construct: 6x-His tag fusion expressed in E. coli

[3] = molecular target: T2, TV910 (Grp94 ortholog, TVAG_378910); test: intrinsic tryptophan fluorescence quenching; also ATPase kinetics (KM […])
[4] = molecular target: T1, TV560 (cytosolic Hsp90, TVAG_153560); test: as above

T1 sequence (A2EPR1 entry or part of it): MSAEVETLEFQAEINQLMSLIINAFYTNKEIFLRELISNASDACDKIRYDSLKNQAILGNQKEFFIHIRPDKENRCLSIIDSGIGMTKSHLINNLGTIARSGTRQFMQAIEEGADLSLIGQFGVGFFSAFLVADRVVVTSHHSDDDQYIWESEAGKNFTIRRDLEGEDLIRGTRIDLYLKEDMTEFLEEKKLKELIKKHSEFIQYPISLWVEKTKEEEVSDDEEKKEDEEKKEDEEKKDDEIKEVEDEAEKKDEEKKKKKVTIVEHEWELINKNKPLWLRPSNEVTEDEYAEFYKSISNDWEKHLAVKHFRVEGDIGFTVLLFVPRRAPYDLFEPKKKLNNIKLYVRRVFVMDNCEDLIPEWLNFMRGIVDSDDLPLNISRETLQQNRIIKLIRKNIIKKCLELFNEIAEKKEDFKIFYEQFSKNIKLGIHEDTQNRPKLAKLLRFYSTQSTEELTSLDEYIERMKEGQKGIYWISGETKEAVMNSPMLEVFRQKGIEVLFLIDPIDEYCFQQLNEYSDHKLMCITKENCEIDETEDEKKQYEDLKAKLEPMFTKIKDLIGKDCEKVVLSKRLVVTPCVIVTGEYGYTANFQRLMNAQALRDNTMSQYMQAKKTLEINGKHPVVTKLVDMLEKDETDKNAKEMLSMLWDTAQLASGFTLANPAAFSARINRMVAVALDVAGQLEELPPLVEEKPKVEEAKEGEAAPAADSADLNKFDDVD
T2 sequence (A2DB82 entry or part of it): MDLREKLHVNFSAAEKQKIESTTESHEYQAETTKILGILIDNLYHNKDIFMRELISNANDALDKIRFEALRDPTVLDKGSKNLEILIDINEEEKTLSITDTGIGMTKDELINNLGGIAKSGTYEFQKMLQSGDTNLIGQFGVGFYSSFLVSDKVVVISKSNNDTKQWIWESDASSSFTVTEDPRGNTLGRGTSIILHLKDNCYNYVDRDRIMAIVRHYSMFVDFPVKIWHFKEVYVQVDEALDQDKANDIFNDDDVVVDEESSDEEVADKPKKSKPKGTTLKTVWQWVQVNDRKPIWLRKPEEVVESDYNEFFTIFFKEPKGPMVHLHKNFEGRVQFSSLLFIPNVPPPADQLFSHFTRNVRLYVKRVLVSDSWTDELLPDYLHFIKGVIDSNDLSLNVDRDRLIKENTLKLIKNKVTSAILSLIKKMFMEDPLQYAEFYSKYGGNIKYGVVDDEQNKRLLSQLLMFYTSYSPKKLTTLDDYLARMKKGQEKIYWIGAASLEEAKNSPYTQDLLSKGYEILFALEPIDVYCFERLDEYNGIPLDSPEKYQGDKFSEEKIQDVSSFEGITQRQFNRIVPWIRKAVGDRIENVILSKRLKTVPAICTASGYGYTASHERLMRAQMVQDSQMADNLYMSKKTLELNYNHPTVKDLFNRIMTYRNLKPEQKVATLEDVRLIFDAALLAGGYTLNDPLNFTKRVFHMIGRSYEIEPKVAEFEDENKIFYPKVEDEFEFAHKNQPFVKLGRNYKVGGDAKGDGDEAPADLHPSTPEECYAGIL

Row | Structure (SMILES) | Kd [1] [µM] | Kd [2] [µM] | Kd [3] [µM] | Kd [4] [µM]
1 | C=CCNC1=C2C[C@@H](C)C[C@H](OC)[C@H](O)[C@@H](C)/C=C(\C)[C@H](OC(N)=O)[C@@H](OC)/C=C\C=C(/C)C(=O)NC(=CC1=O)C2=O [17-AAG] | 11.5 | 15.7 | – | –
2 | Nc1ncnc2c1ncn2[C@@H]1O[C@H](COP(=O)(O)OP(=O)(O)OP(=O)(O)O)[C@@H](O)[C@H]1O [ATP] | – | – | 722 | 538
